Experimental data taken from US7465469B2, “Microbiocidal formulation comprising essentials oils or their derivatives” (State of Israel, Ministry of Agriculture & Rural …, priority 2001, dated 2008).
≈ marks a conversion by molar mass, not a printed value. Like-named read-outs stand apart in the source and are kept apart here.

Tests used:
P. digitatum [1] = assay: Mode of action test (fungicidal or fungistatic) by transfer of the mycelial disc to plain PDA; type: cell-based, Penicillium digitatum; details: growth monitored 5 days after transfer to plain PDA
Source text: A further test was made (in vitro) to investigate whether the mode of action was fungicidal or fungistatic; the mycelial disc of inoculum from the assay plate was transferred to a plate containing just PDA. Plates were then monitored for growth over the next 5 days. If growth resumed, the compound was classified fungistatic, and if growth was not resumed it was classified as fungicidal.

P. digitatum [2] = assay: Minimum inhibitory concentration in PDA Petri dishes (mycelial disc); type: cell-based, Penicillium digitatum; details: 24° C., hyphal growth after 7 days
Description: The minimum inhibitory concentration (MIC) of over 50 compounds that were found in the oil glands of citrus fruits was evaluated (in vitro) by establishing the lowest concentration of the compound where no growth of the pathogen occurred (in vitro) in Petri dishes. Table 5 gives the MIC of the more promising compounds (as compared to imazalil). The requisite amount of each of the compounds to be tested, dissolved in 0.5 ml acetone, was added to a sterile Petri dish (90 mm) containing 15 ml of molten potato dextrose agar (PDA) (50° C.) to give a final concentration of 1 mg ml^−1. The dish was gently agitated to ensure an even distribution of the test compound and the agar was then left to set. The dishes were inoculated using a mycelial disc (8 mm) cut from an agar plate culture of P. digitatum which had not yet begun sporulation. The mycelial discs were placed in the center of each test dish and then put at 24° C. Fungal inhibition was monitored by measuring the diameter of hyphal growth after 7 days.

Penicillium = assay: Decay of lemons inoculated as in Example 2 and treated with citral emulsions; type: in vivo, Penicillium digitatum on lemons
Description: Unblemished grapefruit were harvested from the orchard and on the same day sorted again in the laboratory to eliminate injured fruit. The grapefruit were washed with tap water and air-dried. Each fruit was then inoculated by piercing its flavedo tissue 1.5 mm deep with a tool incorporating three needles at three different sites. Prior to each piercing, the tool was immersed in a spore suspension of Penicillium digitatum (10^6 spores/ml). The inoculated grapefruit were kept at 17° C. and 85% relative humidity for 24 hours after which the grapefruit were divided into six groups and grapefruit from each group were treated by dipping for two minutes in: (a) water; (b) 25% Ethanol (EtOH); (c) 0.2% Geraniol in 25% EtOH; (d) 0.1% Citral in 25% EtOH, (e) 0.2% Citral in 25% EtOH and (f) 0.5% Citral in 25% EtOH.
Lemons were inoculated as shown in Example 2 and treated with and without 25% of ethanol to check whether the 5000 ppm of the emulsifier Tween 20 could stabilize the antifungal activity of citral. […] Probably the emulsifier enables the formation of a microcolloidal stable emulsion, which prevents the phytotxicity by allowing uniform dispersion of citral, which is phytotoxic by itself in these concentrations. Thus, Tween 20 combined with the antioxidant BHA could substitute for the ethanol in the formulation.
Lemons inoculated with Penicillium as shown in Example 2 were dipped for 2 minutes in an aqueous solution comprising citral, emulsifier (Triton X100) and BHA at various concentrations. The concentration of Citral is 1.0%. The control solution was comprised of 0.5% Triton X100.
Lemons inoculated with Penicillium as shown in Example 2 were treated with an aqueous solution comprising 0.5% Citral, 0.3% BHA, Tween 20 and imazalil and stored at 20° C. for a period of 21 days.

lemon fruit = assay: Peel blemish index of lemon fruit after 1-minute dip in citral with antioxidant BHA; type: in vivo; details: BHA by itself
Source text: The antioxidant reduces the oxidation rate of the essential oils leading to their decomposition. It further reduces the inherent phytotoxicity of the essential oil. The antioxidant may be chosen from the group comprising of compounds such as but not limited to: butylated hydroxyanisole (BHA), ascorbic acid, isoascorbic acid, α-tocopherol, butylated hydroxytoluene (BHT), β-carotene or their mixtures. Preferred concentrations of the antioxidant in the formulation of the invention are in the range of from about 0.05% to about 0.8% (w/v).
The peel blemish index is determined by
The blemish score is 0 =no blemishes; 1=light blemishes; 2=moderate blemishes; and 3=severe blemishes.

Geotrichum Candidum = assay: In vitro agar diffusion assay; type: cell-based; details: Five mg on paper disc; Total inhibition is the maximal inhibition, 62.3 cm^2
Penicillium italicum = assay: In vitro agar diffusion assay; type: cell-based; details: Five mg on paper disc; Total inhibition is the maximal inhibition, 62.3 cm^2
Alternaria citri = assay: In vitro agar diffusion assay; type: cell-based; details: Five mg on paper disc; Total inhibition is the maximal inhibition, 62.3 cm^2
[3] = system: non-inoculated Washington oranges; assay: Decay percentage of non-inoculated Washington oranges during storage; type: in vivo, Washington navel oranges
Description: Non-inoculated Washington navel oranges were divided into […] groups which were treated as follows: (a) no treatment; (b) dipped in 50% Ethanol; (c) dipped in 0.2% Citral in 0.02% L-77 Emulsifier (aqueous emulsion); (d) dipped in 0.2% Citral in 50% Ethanol; and (e) dipped in a 0.2% aqueous Imazalil solution.
Oranges were then stored for four months at 15° C. in 50-75% relative humidity and the percentage of rotten fruit in each group was measured at different time periods after storage.

Penicillium digitatum = assay: Decay of lemons inoculated with Penicillium 10^4 spores/ml and dipped; type: in vivo, Penicillium digitatum on lemons; details: limonene or peel extract not irradiated or exposed to sunlight
Description: Lemon fruit flavedo (exocarp) was taken and extracted overnight in dichloromethane, then exposed to sunlight for about 18 hours until the color of the dichloromethane extract turned brown. The flavedo was blended and filtered through a layer of Whatman paper. The extracted solution was evaporated to remove the dichloromethane and the dense liquor was further separated by chromatography with a silica 60 column using dichloromethane as a carrier. Two fractions of dichloromethane, one green and the other colorless, were obtained after chromatography. The crude active extract was isolated by evaporation of the green dichloromethane fraction. […] Effect of the compounds on pathogen development on the fruit was checked daily during storage.
The antifungal activity of the products prepared in the two different routes was checked in the same method. […] Decay was evaluated at specific intervals during a period of 26 days.
Lemons inoculated with Penicillium (10^4 spores/ml) were dipped in an aqueous solution comprising citral, a detergent (Tween 20), other essential oil components as well as a dichloromethane crude extract of lemon flavedo exposed to sunlight. Decay was evaluated at specific intervals during a period of 20 days.
Pure limonene was exposed to sunlight for three hours. […]

lemons = assay: Induction of phytoalexins (scoparone, scopoletin) in lemons; type: in vivo, lemon; details: injection into the albedo tissue of lemons
Description: Treating uninoculated lemons by injecting 5 μl photo-oxidized limonene into the albedo tissue, just below the flavedo, elicited in these lemons the production of scoparone and scopoletin up to levels adequate to protect the fruit from the pathogen. […] Such injury of yellow fruit gave much lower response showing that the maturity of fruit affects this resistance response and older fruit is less protected (FIG. 2). […] Furthermore much higher levels of both scoparone (over 1000 μg/g fresh weight) and of scopoletin (over 200 μg/g fresh weight) were found after dipping inoculated fruit in the crude dichloromethane extract that prevented decay (FIG. 7). The phytoalexins level found was several fold of the amount required to control completely the pathogens. Thus apparently, the formed limonene hydroperoxides form reactive oxygen species, which elicit the immune system of the plant. Such reactive oxygen species effect the pathogen as well. These reactive oxygen species have a short life and decompose well before the fruit is distributed to the market.

[4] = Penicillium digitatum, 168 h, read-out: MIC

MIC (P. digitatum [2]; [4]) [µg/mL] | Compound | Mode of action (P. digitatum [1]) | GROWTH INHIBITION AREA OF THE PATHOGEN (Geotrichum Candidum) | GROWTH INHIBITION AREA OF THE PATHOGEN (Penicillium italicum) | GROWTH INHIBITION AREA OF THE PATHOGEN (Alternaria citri) | also measured
1000 | C=C(C)C1CC=C(C)C(O)C1 (mixture of isomers) [Carveol] | Fungistatic |  |  |  | 
 | COc1ccc(O)c(C(C)(C)C)c1 [BHA, butylated hydroxyanisole] |  |  |  |  | activity of citral in preventing the development of the pathogen (Penicillium; 0.1% BHA with 1.0% citral and Triton X100, 2 minutes dip): enhancing the activity of citral; Peel blemish (lemon fruit): did not cause any blemish
600 (≈ 3890 µM) | CC(C)=CCCC(C)CC=O (stereo not shown) [Citronellal] | Fungistatic |  |  |  | 
50 (≈ 316 µM) | CCCCCCCCCCO [Decanol] | Fungistatic | 0.95 cm^2 | Total inhibition | Total inhibition | 
< 25 | C=CCOC(Cn1ccnc1)c1ccc(Cl)cc1Cl (stereo not shown) [Imazalil, reference compound] | Fungicidal | 8.3 cm^2 | Total inhibition | 42.8 cm^2 | decay control (Penicillium; imazalil 1 and 10 ppm, stored at 20° C. for 21 days): insufficient to control completely decay; % of rotten fruit ([3]; 0.5 months of storage at 15° C.): 0%; % of rotten fruit ([3]; 1 month of storage at 15° C.): 2%; % of rotten fruit ([3]; 2 months of storage at 15° C.): 4%; % of rotten fruit ([3]; 3 months of storage at 15° C.): 5%; % of rotten fruit ([3]; 4 months of storage at 15° C.): 8%
200 (≈ 1390 µM) | CCCCCCCCCO [Nonanol] | Fungistatic |  |  |  | 
 | CCCCCCCC=O [Octanal] |  | 3.6 cm^2 | 2.6 cm^2 | 5.3 cm^2 | 
100 (≈ 768 µM) | CCCCCCCCO [Octanol] | Fungicidal | Total inhibition | Total inhibition | Total inhibition | 
 | C=C(C)[C@@H]1CC=C(CO)CC1 [Perillalcohol] | Fungicidal |  |  |  | MIC (P. digitatum [2]): 0.4 mg ml^−1 agar
 | C=C(C)C1CC=C(C)CC1 (stereo not shown) [limonene, 1-methyl-4-(1-methylethenyl)cyclohexene] |  |  |  |  | inhibition of decay (Penicillium digitatum): not adequately active; elicitation of phytoalexin (scoparone, scopoletin) production (lemons): eliciting the endogenous resistance mechanisms

Compound | MIC (P. digitatum [2]; [4]) [µg/mL] | Mode of action (P. digitatum [1]) | GROWTH INHIBITION AREA OF THE PATHOGEN (Geotrichum Candidum) | GROWTH INHIBITION AREA OF THE PATHOGEN (Penicillium italicum) | GROWTH INHIBITION AREA OF THE PATHOGEN (Alternaria citri) | also measured
O=CC=Cc1ccccc1 [Cinnamaldehyde] | 400 (≈ 3030 µM) | Fungicidal | 24.2 cm^2 | Total inhibition | Total inhibition | 
C=C(C)C1CC=C(C=O)CC1 (stereo not shown) [Perillaldehyde] | 400 (≈ 2660 µM) | Fungicidal | Total inhibition | Total inhibition | Total inhibition | 
